Source: ChEMBL document CHEMBL1177643, “Synthesis, DNA-binding ability and anticancer activity of benzothiazole/benzoxazole-pyrrolo[2,1-c][1,4]benzodiazepine conjugates” (Bioorg Med Chem, 2010)

Tested on: Calf thymus DNA
Assay: Binding affinity to calf thymus duplex-form DNA assessed as melting temperature at 1:5 compound/DNA ratio after 18 hrs
Assay type: nucleic-acid assay
Conditions: Bos taurus

SMILES | ΔTm [°C]
COc1cc2c(cc1OCCCCC(=O)Nc1ccc(-c3nc4ccc(F)cc4s3)cc1)N=C[C@@H]1CCCN1C2=O | 2.3
COc1cc(-c2nc3ccccc3o2)ccc1OCCCCCOc1cc2c(cc1OC)C(=O)N1CCC[C@H]1C=N2 | 4.2
COc1cc2c(cc1OCCCCCOc1ccc(-c3nc4ccccc4o3)cc1)N=C[C@@H]1CCCN1C2=O | 4.3
